Data reported in ChEMBL document CHEMBL5137065, “Recent Advances with KDM4 Inhibitors and Potential Applications” (J Med Chem, 2022).
Values belong to the compound of their own block, whether it stands above or below them. Positions of bridges follow the written chain, without caps; N, C: chain ends. Non-standard residues stand in square brackets, D forms with d. Residues, ends and D or L forms follow the SMILES beside them.

How the values were obtained:
[1] = biological target: T1, Lysine-specific demethylase 2A (Homo sapiens, UniProt Q9Y2K7); experiment: Inhibition of KDM2A in human MIA PaCa-2 cells assessed as induction of H3K36me2 measured by immunofluorescence assay; format: cell-based
T1 sequence (Q9Y2K7 whole entry): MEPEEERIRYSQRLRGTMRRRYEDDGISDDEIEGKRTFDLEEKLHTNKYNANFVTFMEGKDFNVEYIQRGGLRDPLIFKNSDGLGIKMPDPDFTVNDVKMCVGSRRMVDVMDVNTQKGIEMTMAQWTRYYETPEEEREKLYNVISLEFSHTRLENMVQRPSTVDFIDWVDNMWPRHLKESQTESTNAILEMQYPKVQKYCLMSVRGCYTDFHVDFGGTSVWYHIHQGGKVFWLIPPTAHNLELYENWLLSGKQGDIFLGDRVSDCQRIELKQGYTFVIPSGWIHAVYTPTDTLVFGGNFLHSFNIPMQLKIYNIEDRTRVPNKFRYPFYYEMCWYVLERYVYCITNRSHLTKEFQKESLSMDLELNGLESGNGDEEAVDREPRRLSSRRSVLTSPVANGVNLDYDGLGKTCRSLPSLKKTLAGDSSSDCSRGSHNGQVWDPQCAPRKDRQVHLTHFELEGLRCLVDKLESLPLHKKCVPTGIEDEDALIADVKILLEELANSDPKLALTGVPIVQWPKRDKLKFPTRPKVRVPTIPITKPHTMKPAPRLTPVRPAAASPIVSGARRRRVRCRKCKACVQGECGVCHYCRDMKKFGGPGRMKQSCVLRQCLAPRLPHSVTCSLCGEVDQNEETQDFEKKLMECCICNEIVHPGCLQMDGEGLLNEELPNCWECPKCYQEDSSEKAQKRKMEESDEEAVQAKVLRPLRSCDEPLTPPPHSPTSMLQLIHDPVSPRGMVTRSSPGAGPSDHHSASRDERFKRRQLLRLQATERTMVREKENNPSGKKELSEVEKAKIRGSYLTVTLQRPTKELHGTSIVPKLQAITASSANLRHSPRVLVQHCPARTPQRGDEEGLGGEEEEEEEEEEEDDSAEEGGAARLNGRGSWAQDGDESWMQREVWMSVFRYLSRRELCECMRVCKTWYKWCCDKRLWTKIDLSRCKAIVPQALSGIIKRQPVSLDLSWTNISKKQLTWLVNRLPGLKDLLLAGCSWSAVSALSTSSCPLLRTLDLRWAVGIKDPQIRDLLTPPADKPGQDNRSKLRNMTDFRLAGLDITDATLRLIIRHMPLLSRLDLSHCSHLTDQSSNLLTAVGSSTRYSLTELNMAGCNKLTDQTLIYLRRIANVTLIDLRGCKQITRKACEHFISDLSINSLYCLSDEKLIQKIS

[2] = biological target: T2, Lysine-specific demethylase 4A (Homo sapiens, UniProt O75164)
T2 sequence (O75164 whole entry): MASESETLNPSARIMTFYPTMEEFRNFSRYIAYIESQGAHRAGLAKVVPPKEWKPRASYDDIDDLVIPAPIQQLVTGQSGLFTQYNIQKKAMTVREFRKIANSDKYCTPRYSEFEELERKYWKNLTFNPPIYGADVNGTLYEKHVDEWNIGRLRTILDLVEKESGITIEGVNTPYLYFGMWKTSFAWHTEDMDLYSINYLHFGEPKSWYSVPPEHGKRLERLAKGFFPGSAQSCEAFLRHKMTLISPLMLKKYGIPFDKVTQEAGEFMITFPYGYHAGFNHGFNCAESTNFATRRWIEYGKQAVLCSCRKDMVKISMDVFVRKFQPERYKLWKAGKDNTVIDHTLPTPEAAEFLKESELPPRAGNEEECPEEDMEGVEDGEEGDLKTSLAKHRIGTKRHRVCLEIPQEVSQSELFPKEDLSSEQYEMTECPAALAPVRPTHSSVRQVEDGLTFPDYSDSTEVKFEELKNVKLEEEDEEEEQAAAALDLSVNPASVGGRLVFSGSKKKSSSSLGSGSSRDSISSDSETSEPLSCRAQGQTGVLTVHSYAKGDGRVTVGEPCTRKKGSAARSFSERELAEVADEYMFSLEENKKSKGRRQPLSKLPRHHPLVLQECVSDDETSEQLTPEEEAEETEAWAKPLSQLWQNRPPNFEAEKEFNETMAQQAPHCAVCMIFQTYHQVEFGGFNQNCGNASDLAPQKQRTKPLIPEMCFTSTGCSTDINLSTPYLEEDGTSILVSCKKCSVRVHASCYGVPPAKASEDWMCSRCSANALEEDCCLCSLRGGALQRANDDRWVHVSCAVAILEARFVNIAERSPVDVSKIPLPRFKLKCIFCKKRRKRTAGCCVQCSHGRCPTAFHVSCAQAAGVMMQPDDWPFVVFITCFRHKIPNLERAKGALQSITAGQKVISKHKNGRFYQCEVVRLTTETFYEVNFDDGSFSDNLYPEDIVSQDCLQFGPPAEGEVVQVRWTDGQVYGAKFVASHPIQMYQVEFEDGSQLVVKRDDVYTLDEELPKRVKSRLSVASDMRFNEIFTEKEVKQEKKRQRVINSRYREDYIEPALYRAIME

[3] = biological target: Lysine-specific demethylase 6B (Homo sapiens, UniProt O15054); experiment: Inhibition of KDM6B (unknown origin) measured by AlphaScreen assay
Chain of Lysine-specific demethylase 6B (O15054 whole entry): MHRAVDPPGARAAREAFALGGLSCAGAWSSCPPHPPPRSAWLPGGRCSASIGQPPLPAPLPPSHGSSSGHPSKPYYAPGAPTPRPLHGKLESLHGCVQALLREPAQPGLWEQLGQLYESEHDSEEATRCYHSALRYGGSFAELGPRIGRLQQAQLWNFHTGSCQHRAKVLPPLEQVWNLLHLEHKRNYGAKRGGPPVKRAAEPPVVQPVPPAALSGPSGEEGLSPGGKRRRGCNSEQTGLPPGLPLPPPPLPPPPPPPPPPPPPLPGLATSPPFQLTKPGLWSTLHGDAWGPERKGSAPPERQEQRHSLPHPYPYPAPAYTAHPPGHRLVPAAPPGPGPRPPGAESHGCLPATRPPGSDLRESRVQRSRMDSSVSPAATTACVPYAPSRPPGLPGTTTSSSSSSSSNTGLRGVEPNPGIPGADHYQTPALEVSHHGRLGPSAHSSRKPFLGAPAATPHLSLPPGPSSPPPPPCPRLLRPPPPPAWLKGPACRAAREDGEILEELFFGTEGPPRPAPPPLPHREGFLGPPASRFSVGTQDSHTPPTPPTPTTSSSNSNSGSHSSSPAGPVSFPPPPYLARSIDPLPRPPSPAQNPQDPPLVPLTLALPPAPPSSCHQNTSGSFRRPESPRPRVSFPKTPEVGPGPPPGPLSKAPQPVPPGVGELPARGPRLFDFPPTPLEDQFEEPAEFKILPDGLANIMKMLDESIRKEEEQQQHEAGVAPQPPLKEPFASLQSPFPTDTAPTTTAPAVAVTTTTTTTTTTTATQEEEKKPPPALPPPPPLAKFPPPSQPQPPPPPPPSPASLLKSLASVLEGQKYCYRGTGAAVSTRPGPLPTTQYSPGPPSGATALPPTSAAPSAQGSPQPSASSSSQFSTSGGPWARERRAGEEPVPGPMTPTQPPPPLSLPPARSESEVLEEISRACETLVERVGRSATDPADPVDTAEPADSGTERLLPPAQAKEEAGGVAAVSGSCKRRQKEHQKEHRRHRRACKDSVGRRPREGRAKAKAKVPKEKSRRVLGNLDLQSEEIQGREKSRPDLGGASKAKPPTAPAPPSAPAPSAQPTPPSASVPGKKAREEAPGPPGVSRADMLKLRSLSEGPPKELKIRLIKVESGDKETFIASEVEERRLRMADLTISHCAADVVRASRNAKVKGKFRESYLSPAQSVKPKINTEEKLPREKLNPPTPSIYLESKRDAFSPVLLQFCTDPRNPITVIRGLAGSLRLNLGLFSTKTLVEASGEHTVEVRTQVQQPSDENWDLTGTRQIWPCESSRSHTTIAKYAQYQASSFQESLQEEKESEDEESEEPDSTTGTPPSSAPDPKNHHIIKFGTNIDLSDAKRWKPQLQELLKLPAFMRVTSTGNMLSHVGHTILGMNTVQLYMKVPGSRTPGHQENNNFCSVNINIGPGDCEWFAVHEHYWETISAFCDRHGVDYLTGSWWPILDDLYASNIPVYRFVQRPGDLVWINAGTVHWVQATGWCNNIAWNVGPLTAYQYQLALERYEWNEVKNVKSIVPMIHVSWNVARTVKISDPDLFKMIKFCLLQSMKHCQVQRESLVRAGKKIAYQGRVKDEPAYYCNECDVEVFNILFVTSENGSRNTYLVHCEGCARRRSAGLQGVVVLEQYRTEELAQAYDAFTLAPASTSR

[4] = biological target: T3, Lysine-specific demethylase 4C (Homo sapiens, UniProt Q9H3R0); experiment: Inhibition of KDM4C (unknown origin) measured by AlphaScreen assay
T3 sequence (Q9H3R0 whole entry): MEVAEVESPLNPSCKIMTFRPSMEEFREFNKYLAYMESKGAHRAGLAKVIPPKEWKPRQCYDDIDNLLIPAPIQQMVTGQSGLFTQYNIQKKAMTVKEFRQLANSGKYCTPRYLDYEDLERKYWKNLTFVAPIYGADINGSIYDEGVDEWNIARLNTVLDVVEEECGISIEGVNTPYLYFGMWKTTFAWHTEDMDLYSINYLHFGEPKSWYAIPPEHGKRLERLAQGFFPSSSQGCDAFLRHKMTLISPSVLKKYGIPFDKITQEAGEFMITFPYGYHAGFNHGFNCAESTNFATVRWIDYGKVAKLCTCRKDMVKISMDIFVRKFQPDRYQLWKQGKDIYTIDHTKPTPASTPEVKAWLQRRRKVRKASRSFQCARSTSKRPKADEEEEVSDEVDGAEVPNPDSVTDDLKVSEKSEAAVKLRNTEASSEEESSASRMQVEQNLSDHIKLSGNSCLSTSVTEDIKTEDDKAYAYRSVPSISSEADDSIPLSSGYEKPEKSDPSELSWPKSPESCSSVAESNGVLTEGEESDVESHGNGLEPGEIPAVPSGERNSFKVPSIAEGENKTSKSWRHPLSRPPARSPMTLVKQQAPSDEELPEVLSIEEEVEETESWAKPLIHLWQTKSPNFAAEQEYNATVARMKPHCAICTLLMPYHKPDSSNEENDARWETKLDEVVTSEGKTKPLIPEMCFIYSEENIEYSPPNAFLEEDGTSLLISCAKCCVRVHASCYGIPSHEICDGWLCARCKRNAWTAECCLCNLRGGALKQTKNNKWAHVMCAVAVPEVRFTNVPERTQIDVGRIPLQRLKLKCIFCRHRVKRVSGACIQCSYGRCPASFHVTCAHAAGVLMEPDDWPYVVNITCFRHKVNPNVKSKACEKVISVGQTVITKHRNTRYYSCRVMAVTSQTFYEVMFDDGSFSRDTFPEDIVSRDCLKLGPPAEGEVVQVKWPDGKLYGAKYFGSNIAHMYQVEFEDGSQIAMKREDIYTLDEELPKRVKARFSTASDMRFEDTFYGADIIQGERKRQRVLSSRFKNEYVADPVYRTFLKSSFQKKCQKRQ

[5] = biological target: Lysine-specific demethylase 5A (Homo sapiens, UniProt P29375); experiment: Inhibition of KDM5A (unknown origin) measured by AlphaScreen assay
Chain of Lysine-specific demethylase 5A (P29375 whole entry): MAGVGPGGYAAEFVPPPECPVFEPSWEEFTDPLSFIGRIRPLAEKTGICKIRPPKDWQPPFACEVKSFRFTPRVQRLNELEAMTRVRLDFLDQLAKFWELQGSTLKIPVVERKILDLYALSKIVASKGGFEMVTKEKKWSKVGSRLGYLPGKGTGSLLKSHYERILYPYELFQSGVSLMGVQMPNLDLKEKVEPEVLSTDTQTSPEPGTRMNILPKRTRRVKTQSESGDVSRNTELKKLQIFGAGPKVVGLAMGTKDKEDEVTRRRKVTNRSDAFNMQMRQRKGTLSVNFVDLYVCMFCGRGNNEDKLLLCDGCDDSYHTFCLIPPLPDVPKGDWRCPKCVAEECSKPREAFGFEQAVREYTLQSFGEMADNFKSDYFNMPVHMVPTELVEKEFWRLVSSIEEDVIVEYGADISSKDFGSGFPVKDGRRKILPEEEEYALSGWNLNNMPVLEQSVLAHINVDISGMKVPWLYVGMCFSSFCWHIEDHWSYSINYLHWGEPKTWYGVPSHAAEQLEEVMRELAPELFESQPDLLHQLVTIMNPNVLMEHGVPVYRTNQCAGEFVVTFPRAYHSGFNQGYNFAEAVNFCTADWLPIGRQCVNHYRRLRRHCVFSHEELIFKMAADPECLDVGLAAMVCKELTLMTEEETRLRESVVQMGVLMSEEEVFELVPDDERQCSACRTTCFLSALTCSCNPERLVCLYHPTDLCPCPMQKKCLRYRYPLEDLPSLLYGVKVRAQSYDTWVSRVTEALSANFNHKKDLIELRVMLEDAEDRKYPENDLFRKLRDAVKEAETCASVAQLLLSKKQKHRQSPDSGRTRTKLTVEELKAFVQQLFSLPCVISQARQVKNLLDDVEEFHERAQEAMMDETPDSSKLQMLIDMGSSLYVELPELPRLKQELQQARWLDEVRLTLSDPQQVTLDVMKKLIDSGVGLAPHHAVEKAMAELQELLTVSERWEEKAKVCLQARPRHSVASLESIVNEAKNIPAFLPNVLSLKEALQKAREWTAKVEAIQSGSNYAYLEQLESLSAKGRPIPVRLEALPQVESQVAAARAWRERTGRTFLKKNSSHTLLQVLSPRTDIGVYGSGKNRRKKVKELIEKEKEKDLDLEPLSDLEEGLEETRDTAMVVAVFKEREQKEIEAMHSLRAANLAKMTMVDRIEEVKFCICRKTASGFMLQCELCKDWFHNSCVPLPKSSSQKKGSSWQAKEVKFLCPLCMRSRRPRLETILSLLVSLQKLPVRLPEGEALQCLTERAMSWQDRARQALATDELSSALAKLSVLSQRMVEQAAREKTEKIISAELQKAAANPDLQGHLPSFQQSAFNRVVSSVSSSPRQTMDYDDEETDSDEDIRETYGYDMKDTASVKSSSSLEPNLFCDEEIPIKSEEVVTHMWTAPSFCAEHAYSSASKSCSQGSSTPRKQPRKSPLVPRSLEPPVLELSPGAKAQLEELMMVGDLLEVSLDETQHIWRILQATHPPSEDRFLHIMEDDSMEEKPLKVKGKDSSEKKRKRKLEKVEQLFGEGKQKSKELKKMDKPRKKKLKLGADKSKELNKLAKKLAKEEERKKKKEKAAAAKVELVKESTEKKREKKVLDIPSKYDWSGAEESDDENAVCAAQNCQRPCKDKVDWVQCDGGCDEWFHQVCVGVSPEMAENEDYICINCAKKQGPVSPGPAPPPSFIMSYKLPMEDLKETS

[6] = biological target: T2, Lysine-specific demethylase 4A; experiment: Inhibition of KDM4A (unknown origin) measured by AlphaScreen assay
[7] = test system: HL-60; experiment: Antiproliferative activity against human HL-60 cells; format: functional
[8] = test system: KYSE-150 cell line; experiment: Antiproliferative activity against human KYSE-150 cells; format: functional
[9] = biological target: T2, Lysine-specific demethylase 4A; experiment: Inhibition of KDM4A in human KYSE-150 cells assessed as increase in H3K9me3 level; format: cell-based, KYSE-150 cell line
[10] = biological target: T4, Lysine-specific demethylase 4B (Homo sapiens, UniProt O94953); experiment: Inhibition of KDM4B (unknown origin) measured by AlphaScreen assay
T4 sequence (O94953 whole entry): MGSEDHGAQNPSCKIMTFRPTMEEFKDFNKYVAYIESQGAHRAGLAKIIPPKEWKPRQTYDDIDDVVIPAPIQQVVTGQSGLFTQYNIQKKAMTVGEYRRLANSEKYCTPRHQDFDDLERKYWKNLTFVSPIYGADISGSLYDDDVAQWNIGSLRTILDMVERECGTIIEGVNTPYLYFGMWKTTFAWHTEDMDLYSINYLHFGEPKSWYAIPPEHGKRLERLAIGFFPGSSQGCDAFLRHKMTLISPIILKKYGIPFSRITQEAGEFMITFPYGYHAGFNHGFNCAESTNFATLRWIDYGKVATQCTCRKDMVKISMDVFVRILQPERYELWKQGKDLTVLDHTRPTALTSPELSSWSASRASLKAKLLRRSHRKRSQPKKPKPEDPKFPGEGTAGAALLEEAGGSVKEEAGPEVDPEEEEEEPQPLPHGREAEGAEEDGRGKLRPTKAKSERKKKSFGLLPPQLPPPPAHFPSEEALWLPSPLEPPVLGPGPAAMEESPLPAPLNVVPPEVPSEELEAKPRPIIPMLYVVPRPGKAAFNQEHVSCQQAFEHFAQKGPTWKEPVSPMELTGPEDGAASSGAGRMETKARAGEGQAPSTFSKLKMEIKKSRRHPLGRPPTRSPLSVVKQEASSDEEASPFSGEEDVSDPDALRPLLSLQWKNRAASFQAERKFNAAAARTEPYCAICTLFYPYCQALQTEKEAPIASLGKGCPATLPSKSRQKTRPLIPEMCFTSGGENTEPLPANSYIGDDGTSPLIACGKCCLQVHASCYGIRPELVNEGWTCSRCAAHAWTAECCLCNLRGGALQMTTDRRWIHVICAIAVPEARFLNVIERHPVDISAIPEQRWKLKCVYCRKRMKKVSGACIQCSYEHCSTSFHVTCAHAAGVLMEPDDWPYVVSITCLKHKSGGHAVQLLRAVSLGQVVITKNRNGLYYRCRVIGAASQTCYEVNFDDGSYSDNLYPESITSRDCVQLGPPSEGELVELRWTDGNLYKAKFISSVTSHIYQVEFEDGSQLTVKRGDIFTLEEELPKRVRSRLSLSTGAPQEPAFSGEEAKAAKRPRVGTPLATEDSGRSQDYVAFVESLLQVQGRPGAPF

[11] = biological target: T2, Lysine-specific demethylase 4A; experiment: Inhibition of KDM4A (unknown origin) measured by LANCEUltra assay
[12] = biological target: T2, Lysine-specific demethylase 4A; experiment: Inhibition of KDM4A (unknown origin) measured by formaldehyde dehydrogenase (FDH)-coupled fluorescence assay

IC50 [1]: 280 nM | IC50 [2]: 280 nM
SMILES: CCCCCC[n+]1ccccc1C=Cc1ccc(N(C)C)cc1

IC50 [3]: 400 nM | IC50 [4]: 700 nM | IC50 [5]: 130 nM
SMILES: COC1=C2C[C@@H](C)C[C@H](OC)[C@H](O)[C@@H](C)/C=C(\C)[C@H](OC(N)=O)[C@@H](OC)/C=C\C=C(/C)C(=O)NC(=CC1=O)C2=O [GELDANAMYCIN]

IC50 [4]: 33 nM | IC50 [6]: 33 nM
SMILES: CC(C)[C@@H]1NC(=O)[C@@H](Cc2ccc(O)cc2)NC(=O)CSC[C@@H](C(N)=O)NC(=O)[C@H]([C@@H](C)O)NC(=O)[C@H](Cc2ccc(O)cc2)NC(=O)[C@H](Cc2c[nH]c3ccccc23)NC(=O)[C@H](CCCNC(=N)N)NC(=O)[C@H](Cc2c[nH]c3ccccc23)NC(=O)CNC(=O)[C@H](CO)NC(=O)[C@H](CCCNC(=N)N)NC(=O)[C@H]([C@@H](C)O)NC(=O)[C@H](CC(N)=O)NC(=O)[C@H](Cc2ccc(O)cc2)NC1=O ({CH2CO}-[dY]VYNTRSGWRWYTC-NH2; thioether N-14)

GI50 [7]: 1700 nM | EC50 [9]: 3300 nM
SMILES: Oc1ccccc1-c1nc(-c2ccccc2O)n(-c2ccccc2)n1
GI50 [8]: 450 nM

SMILES: CO[C@H]1/C=C\C=C(/C)C(=O)NC2=CC(=O)C(NCCN(C)C)=C(C[C@@H](C)C[C@H](OC)[C@H](O)[C@@H](C)/C=C(\C)[C@@H]1OC(N)=O)C2=O (stereo in doubt) [ALVESPIMYCIN]
IC50 [3]: 400 nM | IC50 [10]: 700 nM | IC50 [4]: 700 nM | IC50 [5]: 130 nM

IC50 [4]: 2.2 nM | IC50 [6]: 6 nM
SMILES: CC[C@H](C)[C@@H]1NC(=O)CNC(=O)[C@H](CO)NC(=O)[C@H](CCCNC(=N)N)NC(=O)[C@H](CCCNC(=N)N)NC(=O)[C@H](Cc2ccccc2)NC(=O)[C@H](CCCNC(=N)N)NC(=O)[C@H]([C@@H](C)O)NC(=O)[C@@H](Cc2ccc(O)cc2)NC(=O)CSC[C@@H](C(N)=O)NC(=O)[C@H](Cc2ccc(O)cc2)NC(=O)[C@H](Cc2ccc(O)cc2)NC(=O)[C@H](Cc2ccccc2)NC(=O)[C@H](C(C)C)NC1=O ({CH2CO}-[dY]TRFRRSGIVFYYC-NH2; thioether N-14)

IC50 [3]: 400 nM | IC50 [10]: 700 nM | IC50 [5]: 130 nM
SMILES: C=CCNC1=C2C[C@@H](C)C[C@H](OC)[C@H](O)[C@@H](C)/C=C(\C)[C@H](OC(N)=O)[C@@H](OC)/C=C\C=C(/C)C(=O)NC(=CC1=O)C2=O (stereo in doubt) [TANESPIMYCIN]

GI50 [7]: 5500 nM | IC50 [11]: 3330 nM | IC50 [12]: 3220 nM | EC50 [9]: 40500 nM
SMILES: O=C(O)c1ccc(-n2nc(-c3ccccc3O)nc2-c2ccccc2O)cc1 [DEFERASIROX]
GI50 [8]: 3300 nM

IC50 [11]: 3330 nM | IC50 [12]: 3220 nM
SMILES: CC(=O)N(O)CCCCCNC(=O)CCC(=O)N(O)CCCCCNC(=O)CCC(=O)N(O)CCCCCN [DEFEROXAMINE]

GI50 [7]: 1700 nM | EC50 [9]: 10000 nM
SMILES: COC(=O)c1ccc(-n2nc(-c3ccccc3O)nc2-c2ccccc2O)cc1
GI50 [8]: 450 nM

SMILES: Cc1c(O)c(=O)ccn1C [DEFERIPRONE]
IC50 [11]: 3330 nM | IC50 [12]: 3220 nM
